Key:
Assay type in all cases: in vivo
Digitaria ciliaris = assay: Test for Herbicidal Effect in Soil Treatment (#3); conditions: 504 h, dose of 2 kg/ha, day 21, visual observation, read-out: growth inhibition effect
Source text: 0: Growth inhibition effect is less than 10%. 1: Growth inhibition effect is equal to or greater than 10%, and less than 30%. 2; Growth inhibition effect is equal to or greater than 30%, and less than 50%. 3: Growth inhibition effect equal to or greater than 50%, and less than 70%. 4: Growth inhibition effect is equal to or greater than 70%, and less than 90%. 5: Growth inhibition effect is equal to or greater than 90%, or complete withering is achieved. (#3) Test for Herbicidal Effect in Soil Treatment: Styrol cups each having an opening diameter of 8 cm (about 52 cm^2) were respectively filled with soil (45 ml) which had been passed through a sieve (2 mm). Water (about 115 ml) was added. Thereafter, Digitaria ciliaris was seeded. Each of the compounds of the present invention was dissolved in acetone, and the obtained product was then diluted with water containing Tween 80°. Each of the resultant chemical solutions was dropped on the entire surface of an associated one of treatment sections, so that each section was treated with 1 ml of the respective chemical solution (a dose of 2 kg/ha). After the treatment, the plants were grown in a glasshouse. On day 21, a survey was conducted on the herbicidal activity by visual observation, and evaluation was made according to the following criteria. The herbicidal activity of the following comparative compounds A and B (the compounds disclosed Japanese Unexamined Patent Publication No. 2003-096059) were evaluated.

Cyperus microiria = assay: Test for Herbicidal Effect in Flooding Treatment (#1), CYMIC; conditions: flooding treatment at seeding, dose 2 kg/ha, visual observation on day 21
Summary of the method: (§1)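 Visual scores from 0 (<10% inhibition) to 5 (≥90% or complete withering) were taken 21 days after treatment of glasshouse-grown plants. Seeds were sown in soil flooded for 24 h beforehand, and compound was applied dropwise onto the surface at 2 kg/ha as an acetone solution diluted in water with Tween 80.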

[1] = tested on: Echinochloa crus-galli (L.) P. Beauv. var. formosensis Ohwi; assay: Test for Herbicidal Effect in Flooding Treatment (#1), ECHDG; conditions: flooding treatment at seeding, dose 2 kg/ha, visual observation on day 21
Summary of the method: as §1

Scirpus juncoides = assay: Test for Herbicidal Effect in Flooding Treatment (#1), SCIJU; conditions: flooding treatment at seeding, dose 2 kg/ha, visual observation on day 21
Summary of the method: as §1

[2] = tested on: Echinochloa crus-galli (L.) P. Beauv. var. formosensis Ohwi; assay: Test for Herbicidal Effect in Flooding Treatment (#2), ECHDG at 2-2.5 leaf stage; conditions: for ECHDG (2-2.5L) #2 herbicidal effect (growth inhibition grade): flooding treatment at 2-2.5 leaf stage, dose 0.2 kg/ha, visual observation on day 21; for inhibition at 200 g/ha: Echinochloa crus-galli, 504 h, flooding treatment (#2), ECHDG at 2-2.5 leaf stage, dose of 0.2 kg/ha, day 21, visual observation, read-out: growth inhibition effect
Summary of the method: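 Flooded muddy soil was seeded with the weed, and at 2–2.5 leaf stage compound in acetone/Tween 80 water was dropped on the water surface at 0.2 kg/ha. Plants were kept in a glasshouse and scored visually on day 21 from 0 (<10% growth inhibition) to 5 (≥90% or complete withering).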

Monochoria vaginalis = assay: Test for Herbicidal Effect in Flooding Treatment (#1), MONVA; conditions: flooding treatment at seeding, dose 2 kg/ha, visual observation on day 21
Summary of the method: as §1

CCOc1c(F)cccc1CS(=O)(=O)c1ncc(Cl)s1 [Compound 1C-9]
inhibition at 2000 g/ha (Digitaria ciliaris): ≥ 50%
CYMIC #1 herbicidal effect (growth inhibition grade) (Cyperus microiria): 5 (Growth inhibition effect is equal to or greater than 90%, or complete withering is achieved)
ECHDG #1 herbicidal effect (growth inhibition grade) [1]: 5 (Growth inhibition effect is equal to or greater than 90%, or complete withering is achieved)
SCIJU #1 herbicidal effect (growth inhibition grade) (Scirpus juncoides): 5 (Growth inhibition effect is equal to or greater than 90%, or complete withering is achieved)
ECHDG (2-2.5L) #2 herbicidal effect (growth inhibition grade) [2]: 5 (Growth inhibition effect is equal to or greater than 90%, or complete withering is achieved)

CCOc1ccc(F)cc1CS(=O)(=O)c1ncc(Cl)s1 [Compound 1C-15]
inhibition at 2000 g/ha (Digitaria ciliaris): ≥ 50%
CYMIC #1 herbicidal effect (growth inhibition grade) (Cyperus microiria): 5 (Growth inhibition effect is equal to or greater than 90%, or complete withering is achieved)
ECHDG #1 herbicidal effect (growth inhibition grade) [1]: 5 (Growth inhibition effect is equal to or greater than 90%, or complete withering is achieved)
SCIJU #1 herbicidal effect (growth inhibition grade) (Scirpus juncoides): 5 (Growth inhibition effect is equal to or greater than 90%, or complete withering is achieved)
ECHDG (2-2.5L) #2 herbicidal effect (growth inhibition grade) [2]: 5 (Growth inhibition effect is equal to or greater than 90%, or complete withering is achieved)

CCOc1cc(F)c(F)cc1CS(=O)(=O)c1ncc(Cl)s1 [Compound 1C-29]
inhibition at 2000 g/ha (Digitaria ciliaris): ≥ 50%
CYMIC #1 herbicidal effect (growth inhibition grade) (Cyperus microiria): 5 (Growth inhibition effect is equal to or greater than 90%, or complete withering is achieved)
MONVA #1 herbicidal effect (growth inhibition grade) (Monochoria vaginalis): 5 (Growth inhibition effect is equal to or greater than 90%, or complete withering is achieved)
ECHDG #1 herbicidal effect (growth inhibition grade) [1]: 5 (Growth inhibition effect is equal to or greater than 90%, or complete withering is achieved)
SCIJU #1 herbicidal effect (growth inhibition grade) (Scirpus juncoides): 5 (Growth inhibition effect is equal to or greater than 90%, or complete withering is achieved)
ECHDG (2-2.5L) #2 herbicidal effect (growth inhibition grade) [2]: 5 (Growth inhibition effect is equal to or greater than 90%, or complete withering is achieved)

O=S(=O)(Cc1ccccc1OC(F)F)c1ncc(Cl)s1 [Compound 1C-38]
inhibition at 2000 g/ha (Digitaria ciliaris): ≥ 90%
CYMIC #1 herbicidal effect (growth inhibition grade) (Cyperus microiria): 5 (Growth inhibition effect is equal to or greater than 90%, or complete withering is achieved)
MONVA #1 herbicidal effect (growth inhibition grade) (Monochoria vaginalis): 5 (Growth inhibition effect is equal to or greater than 90%, or complete withering is achieved)
ECHDG #1 herbicidal effect (growth inhibition grade) [1]: 5 (Growth inhibition effect is equal to or greater than 90%, or complete withering is achieved)
SCIJU #1 herbicidal effect (growth inhibition grade) (Scirpus juncoides): 5 (Growth inhibition effect is equal to or greater than 90%, or complete withering is achieved)
inhibition at 200 g/ha [2]: ≥ 90%
ECHDG (2-2.5L) #2 herbicidal effect (growth inhibition grade) [2]: 5 (Growth inhibition effect is equal to or greater than 90%, or complete withering is achieved)

O=S(=O)(Cc1c(F)cccc1OC(F)F)c1ncc(Cl)s1 [Compound 1C-41, 5-chloro-2-{[2-(difluoromethoxy)-6-fluorophenyl][methanesulfonyl]}-1,3-thiazole]
inhibition at 2000 g/ha (Digitaria ciliaris): ≥ 90%
MONVA #1 herbicidal effect (growth inhibition grade) (Monochoria vaginalis): 5 (Growth inhibition effect is equal to or greater than 90%, or complete withering is achieved)
ECHDG #1 herbicidal effect (growth inhibition grade) [1]: 5 (Growth inhibition effect is equal to or greater than 90%, or complete withering is achieved)
SCIJU #1 herbicidal effect (growth inhibition grade) (Scirpus juncoides): 5 (Growth inhibition effect is equal to or greater than 90%, or complete withering is achieved)
inhibition at 200 g/ha [2]: ≥ 90%
ECHDG (2-2.5L) #2 herbicidal effect (growth inhibition grade) [2]: 5 (Growth inhibition effect is equal to or greater than 90%, or complete withering is achieved)

CCOc1cc(F)c(CS(=O)(=O)c2ncc(Cl)s2)cc1F [Compound 1C-101, 5-chloro-2-[(2,5-difluoro-4-ethoxyphenyl)(methanesulfonyl)]-1,3-thiazole]
inhibition at 2000 g/ha (Digitaria ciliaris): ≥ 50%
CYMIC #1 herbicidal effect (growth inhibition grade) (Cyperus microiria): 5 (Growth inhibition effect is equal to or greater than 90%, or complete withering is achieved)
MONVA #1 herbicidal effect (growth inhibition grade) (Monochoria vaginalis): 5 (Growth inhibition effect is equal to or greater than 90%, or complete withering is achieved)
ECHDG #1 herbicidal effect (growth inhibition grade) [1]: 5 (Growth inhibition effect is equal to or greater than 90%, or complete withering is achieved)
SCIJU #1 herbicidal effect (growth inhibition grade) (Scirpus juncoides): 5 (Growth inhibition effect is equal to or greater than 90%, or complete withering is achieved)
ECHDG (2-2.5L) #2 herbicidal effect (growth inhibition grade) [2]: 5 (Growth inhibition effect is equal to or greater than 90%, or complete withering is achieved)

O=S(=O)(Cc1c(F)cc(OCCC(F)(F)F)cc1F)c1ncc(Cl)s1 [Compound 1C-117]
CYMIC #1 herbicidal effect (growth inhibition grade) (Cyperus microiria): 5 (Growth inhibition effect is equal to or greater than 90%, or complete withering is achieved)
MONVA #1 herbicidal effect (growth inhibition grade) (Monochoria vaginalis): 5 (Growth inhibition effect is equal to or greater than 90%, or complete withering is achieved)
ECHDG #1 herbicidal effect (growth inhibition grade) [1]: 5 (Growth inhibition effect is equal to or greater than 90%, or complete withering is achieved)
SCIJU #1 herbicidal effect (growth inhibition grade) (Scirpus juncoides): 5 (Growth inhibition effect is equal to or greater than 90%, or complete withering is achieved)
ECHDG (2-2.5L) #2 herbicidal effect (growth inhibition grade) [2]: 4 (Growth inhibition effect is equal to or greater than 70%, and less than 90%)

COCOc1cc(Cl)c(CS(=O)(=O)c2ncc(Cl)s2)c(Cl)c1 [Compound 1C-119]
CYMIC #1 herbicidal effect (growth inhibition grade) (Cyperus microiria): 5 (Growth inhibition effect is equal to or greater than 90%, or complete withering is achieved)
MONVA #1 herbicidal effect (growth inhibition grade) (Monochoria vaginalis): 5 (Growth inhibition effect is equal to or greater than 90%, or complete withering is achieved)
ECHDG #1 herbicidal effect (growth inhibition grade) [1]: 5 (Growth inhibition effect is equal to or greater than 90%, or complete withering is achieved)
SCIJU #1 herbicidal effect (growth inhibition grade) (Scirpus juncoides): 5 (Growth inhibition effect is equal to or greater than 90%, or complete withering is achieved)
ECHDG (2-2.5L) #2 herbicidal effect (growth inhibition grade) [2]: 4 (Growth inhibition effect is equal to or greater than 70%, and less than 90%)

O=S(=O)(Cc1c(Cl)cccc1OCC(F)(F)F)c1ncc(Br)s1 [Compound 1C-161, 5-bromo-2-{[2-(2,2,2-trifluoroethoxy)-6-chlorophenyl][methanesulfonyl]}-1,3-thiazole]
inhibition at 2000 g/ha (Digitaria ciliaris): ≥ 50%
ECHDG #1 herbicidal effect (growth inhibition grade) [1]: 5 (Growth inhibition effect is equal to or greater than 90%, or complete withering is achieved)
SCIJU #1 herbicidal effect (growth inhibition grade) (Scirpus juncoides): 5 (Growth inhibition effect is equal to or greater than 90%, or complete withering is achieved)
ECHDG (2-2.5L) #2 herbicidal effect (growth inhibition grade) [2]: 5 (Growth inhibition effect is equal to or greater than 90%, or complete withering is achieved)

O=S(=O)(Cc1ccccc1F)c1ncc(Cl)s1 [comparative compound A, reference compound]
inhibition at 2000 g/ha (Digitaria ciliaris): 30 to 50%
inhibition at 200 g/ha [2]: 10 to 30%

O=S(=O)(Cc1ccccc1Cl)c1ncc(Cl)s1 [comparative compound B, reference compound]
inhibition at 2000 g/ha (Digitaria ciliaris): 30 to 50%
inhibition at 200 g/ha [2]: 30 to 50%
